Laboratory results as given in publication PMC9686568, “Novel Alligator Cathelicidin As-CATH8 Demonstrates Anti-Infective Activity against Clinically Relevant and Crocodylian Bacterial Pathogens” (Antibiotics, 2022).
Read-outs that look alike come from different tables or passages of the source.

Tests used:
[1] = test system: S. aureus SAP0017 cytoplasmic membrane; test: Membrane depolarization (DiSC3(5)) and permeabilization (PI) assay with CFU enumeration; assay type: cell-based; settings: S. aureus planktonic cells, 1 h treatment
[2] = cited from earlier work
Source text: It is well-known that HDPs can interact with multiple extracellular and intracellular targets to exert their antimicrobial and antibiofilm effects. […] Although it seems likely that compromising the integrity of the membrane is a key component of the killing mechanism of As-CATH8, this may not always be a fatal event and additional or alternative activities might also play a significant role. Two main elements support this idea: first, maxim ...

[3] = test system: S. aureus SAP0017 biofilms; test: Biofilm-killing assay; assay type: cell-based; settings: S. aureus 24 h biofilms, 64 × MIC
Description: (§1) Biofilm-killing assays were set up like the biofilm inhibition assays previously described. […] Plates were incubated at 37 °C and bacterial biomass was scraped out of the wells with cotton swabs at 0, 0.5, 1, 2 and 20 h after treatment. Cotton tips were placed in 1 mL of LB and sonicated for 5 min, and bacterial numbers were determined by serial dilution and plating on LB agar.

E. faecium = test: MIC, broth microdilution in MHB; assay type: cell-based, E. faecium #1-1
Description: (§2) The following bacterial pathogens were used in this study: S. enterica subsp. enterica serovar Typhimurium ATCC 14028, E. coli O157:H7 [83], the clinical isolates S. aureus SAP0017 [84] and USA300 LAC [85], E. faecium #1-1 [85], A. baumannii Ab5075 [85] and E. cloacae 218R1 [85], as well as P. aeruginosa PAO1 [34], P. vulgaris HSC7200-T2 (Hancock Lab strain collection) and K. pneumoniae KPLN49 [85].
(§3) Overnight cultures were grown in LB at 37 °C with shaking at 250 rpm, except for E. faecium, which was grown in BHI medium.
(§4) The antimicrobial activity of the crocCATHs was evaluated with the broth microdilution method as described previously. MIC was defined as the first peptide or antibiotic concentration without visible bacterial growth. Reported values are the statistical mode of at least three independent experiments.

[4] = test system: linearized plasmid pET28a; test: Agarose gel electrophoretic mobility shift assay (DNA binding)
Description: To investigate the DNA binding capacity of As-CATH8, vancomycin and polymyxin B, an agarose gel electrophoretic mobility shift assay was performed as previously described. Briefly, overnight cultures of E. coli BL21 Star cells harboring the pET28a plasmid were grown in LB supplemented with kanamycin (30 μg/mL). The pET28a plasmid was purified using the QIAprep Spin Miniprep Kit (QIAGEN Inc., Hilden, Germany) and linearized with the SmaI endonuclease (Thermofisher Scientific, Waltham, MA, USA). Linear pET28a was purified from an agarose gel using the QIAquick Gel Extraction Kit (QIAGEN Inc., Hilden, Germany).
Twofold decreasing amounts of As-CATH8 or antibiotics were incubated for 1 h at room temperature with 100 ng of linear pET28a in 10 μL of binding buffer (5% glycerol, 10 mM Tris-HCl pH 8.0, 1 mM EDTA, 1 mM DTT, 20 mM KCl and 50 μg/mL BSA). After this, 2 μL of 6× DNA Loading Dye (Thermofisher Scientific, Waltham, MA, USA) was added and the mixture was loaded onto a 1% agarose gel in TAE buffer containing SYBR Safe (Thermofisher Scientific, Waltham, MA, USA). The gel was run at 100 V for 1 h and the GeneRuler 1 kb DNA ladder (Thermofisher Scientific, Waltham, MA, USA) was used as a molecular weight marker. Finally, the gel was imaged on a ChemiDoc Touch Imaging System (BioRad Laboratories, Montreal, QC, Canada).

S. aureus = test: MIC, broth microdilution in MHB; assay type: cell-based
Description: as §2, §3, §4

planktonic A. baumannii = test: Planktonic time-kill assay; assay type: cell-based; settings: ~5 × 10^5 CFU/mL in MHB, at the MIC, 37 °C
Description: The bactericidal activity of As-CATH8 and antibiotics was evaluated against planktonic S. aureus SAP0017 and A. baumannii cells under similar conditions to those used in the antimicrobial assays. Bacteria were grown overnight in LB media and diluted to ~5 × 10^5 CFU/mL in MHB. […] Samples were taken at 0, 0.5, 1, 2 and 20 h after treatment and CFU counts determined by serial dilution and plating on LB agar.

P. aeruginosa = test: MIC, broth microdilution in MHB; assay type: cell-based, P. aeruginosa PAO1
Description: as §2, §3, §4

E. cloacae = assay type: cell-based, E. cloacae 218R1; settings: E. cloacae, microdilution in MHB
Description: as §2, §3, §4

A. baumannii = test: MIC, broth microdilution in MHB; assay type: cell-based, A. baumannii Ab5075
Description: as §2, §3, §4

A. baumannii biofilms = test: Biofilm-killing assay; assay type: cell-based; settings: A. baumannii 24 h biofilms, 10% TSB + 0.1% glucose, 64 × MIC
Description: as §1

K. pneumoniae = test: MIC, broth microdilution in MHB; assay type: cell-based, K. pneumoniae KPLN49
Description: as §2, §3, §4

E. coli = assay type: cell-based, E. coli O157:H7; settings: microdilution in MHB
Description: as §2, §3, §4

[5] = test system: A. baumannii cytoplasmic membrane; test: Membrane depolarization (DiSC3(5)) and permeabilization (PI) assay with CFU enumeration; assay type: cell-based; settings: A. baumannii planktonic cells, 1 h treatment
Description: The cytoplasmic membrane depolarization and permeabilization activities of As-CATH8 compared to those of antibiotics (vancomycin or polymyxin B) were assessed against S. aureus SAP0017 and A. baumannii using the membrane-potential sensitive dye DiSC3(5) and the cell viability dye PI [36]. The membrane-permeabilizing peptide mastoparan was included as a positive control and water served as a negative (untreated) control.
Briefly, after growth in LB, mid-log phase bacteria were centrifuged and washed twice with 5 mM HEPES buffer supplemented with 20 mM glucose (HEPES-Gluc). Cell density was adjusted to ~10^7 CFU/mL in (HEPES-Gluc) supplemented with 0.1 M KCl. […] After incubation, 190 μL/well of the cultures were added to black opaque 96-well plates (Corning Inc.) and pre-treatment fluorescence was monitored every 2 min for a total of 10 min using a Synergy H1 Hybrid Multi-Mode Reader (BioTek, Winooski, VT, USA). […] After assessing that fluorescence values remained stable, bacteria were treated with 10 μL/well of peptide, antibiotic or water. Fluorescence was quantified 1 h after treatment under the same conditions and represented as a function of peptide concentration, subtracting the background of untreated cells.
To assess bacterial survival after treatment, supernatants from the fluorescence assays were serial diluted and plated for CFU enumeration. […]

S. Typhimurium = assay type: cell-based, S. enterica subsp. enterica serovar Typhimurium ATCC 14028; settings: S. Typhimurium, microdilution in MHB
Description: as §2, §3, §4

P. vulgaris = assay type: cell-based, P. vulgaris HSC7200-T2; settings: microdilution in MHB
Description: as §2, §3, §4

[6] = first concentration without visible growth, mode of at least three independent experiments

## CN[C@H](CC(C)C)C(=O)N[C@H]1C(=O)N[C@@H](CC(N)=O)C(=O)N[C@H]2C(=O)N[C@H]3C(=O)N[C@H](C(=O)N[C@H](C(=O)O)c4cc(O)cc(O)c4-c4cc3ccc4O)[C@H](O)c3ccc(c(Cl)c3)Oc3cc2cc(c3O[C@@H]2O[C@H](CO)[C@@H](O)[C@H](O)[C@H]2O[C@H]2C[C@](C)(N)[C@H](O)[C@H](C)O2)Oc2ccc(cc2Cl)[C@H]1O [Vancomycin, vancomycin]
[1]
  Membrane depolarization (DiSC3(5) fluorescence) and permeabilization (PI fluorescence), result in words: almost no effect
[2]
  Net charge: +1
[3]; 2 h time point
  Effect on biofilms at 2 h, result in words: modest effect
[3]; 20 h of treatment
  Effect on biofilms after 20 h, result in words: potent activity
E. faecium; Enterococcus faecium, first concentration without visible growth, mode of at least three independent experiments
  MIC: > 64 µM
E. faecium; Enterococcus faecium, value in brackets of Table S4
  MIC: > 93 µg/mL
E. faecium; [6]
  MIC: > 64 µM
[4]
  Capacity for binding to DNA, result in words: no
S. aureus; Staphylococcus aureus, first concentration without visible growth, mode of at least three independent experiments
  MIC: 0.5 µM
S. aureus; Staphylococcus aureus, value in brackets of Table S4
  MIC: 0.7 µg/mL
S. aureus; [6]
  MIC: 0.5 µM

## polymyxin B
Planktonic A. baumannii
  Time to complete killing of planktonic cells: up to 20 h
P. aeruginosa; [6]
  MIC: 0.5 µM
P. aeruginosa; value in brackets of Table S4
  MIC: 0.6 µg/mL
E. cloacae; [6]
  MIC: 0.5 µM
E. cloacae; value in brackets of Table S4
  MIC: 0.6 µg/mL
A. baumannii; [6]
  MIC: 0.5 µM
A. baumannii; value in brackets of Table S4
  MIC: 0.6 µg/mL
[2]
  Net charge: +5
A. baumannii biofilms
  Time to complete eradication of biofilms: 20 h
K. pneumoniae; [6]
  MIC: 0.5 µM
K. pneumoniae; value in brackets of Table S4
  MIC: 0.6 µg/mL
E. coli; [6]
  MIC: 0.5 µM
E. coli; value in brackets of Table S4
  MIC: 0.6 µg/mL
[5]
  Membrane depolarization (DiSC3(5) fluorescence) and permeabilization (PI fluorescence), result in words: almost no effect
S. Typhimurium; [6]
  MIC: 1 µM
S. Typhimurium; value in brackets of Table S4
  MIC: 1.2 µg/mL
[4]
  Capacity for binding to DNA, result in words: weak
P. vulgaris; [6]
  MIC: > 64 µM
P. vulgaris; value in brackets of Table S4
  MIC: > 77 µg/mL
